Results published in patent publication US20230321067A1, “DOSING REGIMEN COMPRISING 3-(1-OXOISOINDOLIN-2-YL)PIPERIDINE-2,6-DIONE DERIVATIVES” (Novartis AG, priority 2020, published 2023).

Assays:
[1] = target: T1, IKZF4 (Homo sapiens, UniProt Q96SW2+Q9H2S9); experiment: IKZF4 degradation in vitro (FIG. 1); assay type: cell-based; settings: relative to IKZF2
T1 construct: prolabel (ProLabel enzyme-fragment tag); expressed in transfected cells; host or cells: HEK293T
Source text: (§1) Although the specific transcriptional targets of IKZF2 remain to be defined, IKZF2 binds to and represses transcription from the IL-2 promoter region (Baine 2013). […] Finally, an in vitro assay recapitulating hallmarks of T cell dysfunction/exhaustion, by sequential TCR stimulation of isolated primary human T cells, was used to test the hypothesis that […] would rescue the exhausted phenotype and enhance Teff cell activity. […] In addition to IKZF1, other known cereblon substrates including translation termination factor G1 to S phase transition 1 (GSPT1) are not degraded by I-57 (FIG. 1).

[2] = tested on: IKZF2; experiment: IKZF2 degradation in primary rabbit PBMCs; assay type: cell-based
Method: I-57 mediated degradation of IKZF2 was assessed in primary PBMCs obtained from rabbit, dog, pig, cynomolgus monkey, and human, and in primary splenocytes of mouse and rat. […] Species-specificity due to species specific alteration CRBN primary structure have previously been described with other compounds known to interact with the CRBN ubiquitin ligase complex to elicit protein specific degradation (Krönke et al, 2015).

[3] = tested on: isolated primary human T cells; experiment: In vitro T cell dysfunction/exhaustion assay (sequential TCR stimulation); assay type: cell-based
Source text: as §1

[4] = target: T2, FIZ1 (Homo sapiens, UniProt Q96SL8); experiment: Whole cell proteomic analysis in 293T cells and subsequent analyses: FIZ1; assay type: cell-based
T2 construct: endogenous in cells; host or cells: 293T
Method: Other potential degradation targets of I-57 were evaluated in 293T cells using whole cell proteomic analysis. […] Subsequent analyses have confirmed that FIZ1 is degraded by about 50% at a 10 μM concentration of I-57 ([I-57 Investigator's Brochure]). […] FIZ1 is expressed in the neural retina where it transcriptionally represses the differentiation of photoreceptors. FIZ1 is also expressed in non-ocular tissues with unknown function.

[5] = Repeated oral dose PK in MDA-MB231 xenograft human PBMC adoptive transfer model; assay type: in vivo, NSG mice; settings: hPBMC AdT mouse
Method: The PK/PD relationship of I-57 was examined in the hPBMC AdT model system. Human PBMCs were adoptively transferred into female NSG mice harboring established MDA-MB231 xenografts (FIG. 6). This model was selected based on the observation that IKZF2 positive Tregs (CD4+FOXP3+) were readily identifiable in peripheral blood and infiltrated in the tumor xenografts.
Mice were administered I-57 daily for 14 consecutive days at the doses shown. Longitudinal I-57 plasma concentrations were assessed (Table 14).

[6] = In vivo non-clinical PK, monkey; parameters: species or system cynomolgus monkey
Method: The in vivo non-clinical PK profile of I-57 was investigated in mouse, rat, dog and cynomolgus monkey using I-57 free base. […] After p.o. administration, the absorption of I-57 was rapid with peak blood concentration (Tmax) occurring between 1 and 4 hours. […] In high dose PK and toxicology studies with I-57 the exposures in mouse, rat and monkey increased with dose.

[7] = tested on: plasma protein; experiment: Plasma protein binding in vitro, human; assay type: in vitro ADME
Source text: The binding to plasma protein of I-57 in vitro was moderate in all species, with an observed difference between rodents (73% in mouse, 76% in rat) and non-rodents (52% in dog and monkey, 54% in human). Blood-to-plasma ratios were in the range of 0.7-1.8 (human 1.1-1.3). […] Based on results with non-radiolabeled I-57 in the dog, a significant amount of unchanged I-57 was renally eliminated (˜20% of dose).

[8] = target: CYP3A4 (Homo sapiens, UniProt P08684); experiment: Enzyme phenotyping with human recombinant CYPs; assay type: in vitro ADME; settings: human recombinant CYPs in vitro; preliminary assessment
Method: In vivo in the dog, very minor amounts of the N-dealkylation product and products derived from hydrolysis of the glutarimide moiety were detected in plasma. While the contribution of CYP-mediated oxidative metabolism to systemic clearance is unknown, a preliminary assessment of the enzymes involved was conducted using human recombinant CYPs in vitro.

[9] = target: P-gp (Homo sapiens, UniProt P08183); experiment: P-gp substrate assessment; assay type: in vitro ADME
[10] = target: CYP2A6 (Homo sapiens, UniProt P11509); experiment: CYP inhibition: CYP2A6; assay type: in vitro ADME; settings: I-57 concentrations of up to 100 μM
[11] = target: CYP2C8 (Homo sapiens, UniProt P10632); experiment: CYP inhibition: CYP2C8; assay type: in vitro ADME; settings: I-57 concentrations of up to 100 μM
[12] = target: CYP2C9 (Homo sapiens, UniProt P11712); experiment: Time-dependent CYP inhibition: CYP2C9; assay type: in vitro ADME; settings: I-57 concentrations of up to 100 μM
[13] = ECG (QTc) in monkeys, single dose and 4-week GLP repeat dose study; assay type: in vivo, monkey
Method: The risk of possible QTc interval prolongation at the starting dose is therefore considered low. QT prolongation may become clinically significant during escalation but are not anticipated to be dose limiting until doses at or above 640 mg. Monitoring and other measures to mitigate potential risk of arrhythmia is addressed in Example 3 below.

[14] = Genotoxic potential
[15] = target: IKZF2 (Homo sapiens, UniProt Q96SW2+Q9UKS7); experiment: Degradation of IKZF2 in primary PBMCs, human (FIG. 3); assay type: cell-based; parameters: endogenous in cells; host or cells: primary human PBMCs
Source text: FIG. 3. is a bar graph showing the degradation of IKZF2 in primary PBMCs obtained from rabbit, dog, pig, cynomolgus monkey and human, and in primary splenocytes of mouse and rat and treated with Compound I-57.

[16] = female, NSG, mouse, plasma, po, 0.3 mg/kg, unbound, post 1st dose, p.o. 0.3 mg/kg daily
[17] = female, NSG, mouse, plasma, po, 0.3 mg/kg, unbound, post 13th dose, p.o. 0.3 mg/kg daily
[18] = female, NSG, mouse, plasma, po, 1 mg/kg, unbound, post 1st dose, p.o. 1 mg/kg daily
[19] = female, NSG, mouse, plasma, po, 1 mg/kg, unbound, post 13th dose, p.o. 1 mg/kg daily
[20] = female, NSG, mouse, plasma, po, 3 mg/kg, unbound, post 1st dose, p.o. 3 mg/kg daily
[21] = female, NSG, mouse, plasma, po, 3 mg/kg, unbound, post 13th dose, p.o. 3 mg/kg daily
[22] = female, NSG, mouse, plasma, po, 30 mg/kg, unbound, post 1st dose, p.o. 30 mg/kg daily
[23] = female, NSG, mouse, plasma, po, 30 mg/kg, unbound, post 13th dose, p.o. 30 mg/kg daily

T2 sequence (Q96SL8 whole entry): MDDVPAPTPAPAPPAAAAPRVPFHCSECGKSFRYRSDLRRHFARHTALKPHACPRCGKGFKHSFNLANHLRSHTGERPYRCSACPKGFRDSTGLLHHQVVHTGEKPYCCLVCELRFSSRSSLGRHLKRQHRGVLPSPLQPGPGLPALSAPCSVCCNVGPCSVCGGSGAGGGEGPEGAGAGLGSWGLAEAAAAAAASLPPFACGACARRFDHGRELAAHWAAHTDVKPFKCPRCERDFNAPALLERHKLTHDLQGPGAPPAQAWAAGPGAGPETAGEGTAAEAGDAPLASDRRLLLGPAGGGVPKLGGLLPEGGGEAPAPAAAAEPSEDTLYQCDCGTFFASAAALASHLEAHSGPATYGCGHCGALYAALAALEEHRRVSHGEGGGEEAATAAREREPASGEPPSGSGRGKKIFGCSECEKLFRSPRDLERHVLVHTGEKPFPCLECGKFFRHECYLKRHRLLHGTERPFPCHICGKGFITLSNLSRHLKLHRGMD
Chain of IKZF2 (Homo sapiens, UniProt Q96SW2+Q9UKS7) (Q9UKS7 whole entry): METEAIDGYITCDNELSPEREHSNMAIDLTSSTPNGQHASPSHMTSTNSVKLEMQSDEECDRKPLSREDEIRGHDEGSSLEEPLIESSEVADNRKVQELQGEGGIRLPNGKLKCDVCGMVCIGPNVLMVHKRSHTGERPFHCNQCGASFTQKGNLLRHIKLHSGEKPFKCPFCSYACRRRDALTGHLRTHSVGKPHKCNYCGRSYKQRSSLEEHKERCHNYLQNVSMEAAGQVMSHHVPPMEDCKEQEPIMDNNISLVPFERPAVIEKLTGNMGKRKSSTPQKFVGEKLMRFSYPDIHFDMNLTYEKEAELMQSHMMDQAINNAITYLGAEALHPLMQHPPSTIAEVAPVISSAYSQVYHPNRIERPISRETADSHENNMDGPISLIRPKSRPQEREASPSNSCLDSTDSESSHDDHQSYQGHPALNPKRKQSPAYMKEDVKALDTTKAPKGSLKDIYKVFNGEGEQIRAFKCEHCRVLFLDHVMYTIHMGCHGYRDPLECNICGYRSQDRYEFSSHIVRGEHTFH
Chain of IKZF2 (Homo sapiens, UniProt Q96SW2+Q9UKS7) (Q96SW2 whole entry): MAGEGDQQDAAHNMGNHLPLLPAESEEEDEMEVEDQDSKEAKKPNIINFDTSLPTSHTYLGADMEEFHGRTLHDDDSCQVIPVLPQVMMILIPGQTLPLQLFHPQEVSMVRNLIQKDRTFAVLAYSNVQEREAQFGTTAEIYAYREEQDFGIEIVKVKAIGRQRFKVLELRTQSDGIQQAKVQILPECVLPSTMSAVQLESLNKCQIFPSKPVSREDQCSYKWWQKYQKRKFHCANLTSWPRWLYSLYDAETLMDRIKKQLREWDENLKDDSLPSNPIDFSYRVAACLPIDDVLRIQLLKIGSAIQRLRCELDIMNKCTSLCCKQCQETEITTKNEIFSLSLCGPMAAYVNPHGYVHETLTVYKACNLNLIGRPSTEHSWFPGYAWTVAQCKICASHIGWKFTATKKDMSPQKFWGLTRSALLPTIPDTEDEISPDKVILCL
Chain of IKZF2 (Homo sapiens, UniProt Q96SW2+Q9UKS7) (Q16531 whole entry partner): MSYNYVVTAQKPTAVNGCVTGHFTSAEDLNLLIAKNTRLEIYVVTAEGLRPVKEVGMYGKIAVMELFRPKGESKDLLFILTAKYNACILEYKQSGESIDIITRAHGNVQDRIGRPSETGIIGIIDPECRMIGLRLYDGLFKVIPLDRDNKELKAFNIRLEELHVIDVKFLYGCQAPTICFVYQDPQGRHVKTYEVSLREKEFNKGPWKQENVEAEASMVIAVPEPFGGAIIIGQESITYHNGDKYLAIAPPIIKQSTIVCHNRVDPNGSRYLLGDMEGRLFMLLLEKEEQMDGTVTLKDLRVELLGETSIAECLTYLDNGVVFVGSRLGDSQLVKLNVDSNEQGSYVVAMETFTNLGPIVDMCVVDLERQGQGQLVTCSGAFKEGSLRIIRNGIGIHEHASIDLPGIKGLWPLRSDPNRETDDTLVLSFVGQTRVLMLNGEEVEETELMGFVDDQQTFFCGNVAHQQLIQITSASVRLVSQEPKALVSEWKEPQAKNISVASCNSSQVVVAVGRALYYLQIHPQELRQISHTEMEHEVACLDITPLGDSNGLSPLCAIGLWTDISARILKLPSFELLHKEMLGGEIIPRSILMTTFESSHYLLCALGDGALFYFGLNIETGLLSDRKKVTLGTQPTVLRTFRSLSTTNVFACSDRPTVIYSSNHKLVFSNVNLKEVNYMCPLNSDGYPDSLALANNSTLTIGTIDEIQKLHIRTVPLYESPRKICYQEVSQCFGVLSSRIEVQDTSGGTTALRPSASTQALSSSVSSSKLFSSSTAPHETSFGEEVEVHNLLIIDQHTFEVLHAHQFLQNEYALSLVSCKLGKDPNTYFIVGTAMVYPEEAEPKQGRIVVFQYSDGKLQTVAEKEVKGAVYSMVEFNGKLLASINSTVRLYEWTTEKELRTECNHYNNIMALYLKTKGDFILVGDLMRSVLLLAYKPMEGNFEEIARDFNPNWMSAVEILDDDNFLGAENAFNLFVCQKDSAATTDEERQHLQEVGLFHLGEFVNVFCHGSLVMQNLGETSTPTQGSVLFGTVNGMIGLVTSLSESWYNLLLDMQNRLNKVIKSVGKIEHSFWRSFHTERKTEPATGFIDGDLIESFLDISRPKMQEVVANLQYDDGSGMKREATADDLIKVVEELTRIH
Chain of CYP2C9 (P11712 whole entry): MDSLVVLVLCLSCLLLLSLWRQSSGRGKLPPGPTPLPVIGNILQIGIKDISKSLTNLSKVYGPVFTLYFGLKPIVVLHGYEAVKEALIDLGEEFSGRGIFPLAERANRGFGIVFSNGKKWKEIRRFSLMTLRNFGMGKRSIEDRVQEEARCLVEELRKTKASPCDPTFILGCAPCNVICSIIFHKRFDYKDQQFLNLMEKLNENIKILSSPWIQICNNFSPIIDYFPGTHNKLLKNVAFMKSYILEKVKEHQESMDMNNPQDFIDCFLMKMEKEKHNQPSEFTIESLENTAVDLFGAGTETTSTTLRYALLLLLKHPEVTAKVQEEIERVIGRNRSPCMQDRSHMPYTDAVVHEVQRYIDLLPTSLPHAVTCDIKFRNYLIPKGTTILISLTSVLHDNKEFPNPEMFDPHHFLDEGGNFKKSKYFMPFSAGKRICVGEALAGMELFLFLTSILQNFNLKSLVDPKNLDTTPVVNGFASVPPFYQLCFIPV
Chain of P-gp (P08183 whole entry): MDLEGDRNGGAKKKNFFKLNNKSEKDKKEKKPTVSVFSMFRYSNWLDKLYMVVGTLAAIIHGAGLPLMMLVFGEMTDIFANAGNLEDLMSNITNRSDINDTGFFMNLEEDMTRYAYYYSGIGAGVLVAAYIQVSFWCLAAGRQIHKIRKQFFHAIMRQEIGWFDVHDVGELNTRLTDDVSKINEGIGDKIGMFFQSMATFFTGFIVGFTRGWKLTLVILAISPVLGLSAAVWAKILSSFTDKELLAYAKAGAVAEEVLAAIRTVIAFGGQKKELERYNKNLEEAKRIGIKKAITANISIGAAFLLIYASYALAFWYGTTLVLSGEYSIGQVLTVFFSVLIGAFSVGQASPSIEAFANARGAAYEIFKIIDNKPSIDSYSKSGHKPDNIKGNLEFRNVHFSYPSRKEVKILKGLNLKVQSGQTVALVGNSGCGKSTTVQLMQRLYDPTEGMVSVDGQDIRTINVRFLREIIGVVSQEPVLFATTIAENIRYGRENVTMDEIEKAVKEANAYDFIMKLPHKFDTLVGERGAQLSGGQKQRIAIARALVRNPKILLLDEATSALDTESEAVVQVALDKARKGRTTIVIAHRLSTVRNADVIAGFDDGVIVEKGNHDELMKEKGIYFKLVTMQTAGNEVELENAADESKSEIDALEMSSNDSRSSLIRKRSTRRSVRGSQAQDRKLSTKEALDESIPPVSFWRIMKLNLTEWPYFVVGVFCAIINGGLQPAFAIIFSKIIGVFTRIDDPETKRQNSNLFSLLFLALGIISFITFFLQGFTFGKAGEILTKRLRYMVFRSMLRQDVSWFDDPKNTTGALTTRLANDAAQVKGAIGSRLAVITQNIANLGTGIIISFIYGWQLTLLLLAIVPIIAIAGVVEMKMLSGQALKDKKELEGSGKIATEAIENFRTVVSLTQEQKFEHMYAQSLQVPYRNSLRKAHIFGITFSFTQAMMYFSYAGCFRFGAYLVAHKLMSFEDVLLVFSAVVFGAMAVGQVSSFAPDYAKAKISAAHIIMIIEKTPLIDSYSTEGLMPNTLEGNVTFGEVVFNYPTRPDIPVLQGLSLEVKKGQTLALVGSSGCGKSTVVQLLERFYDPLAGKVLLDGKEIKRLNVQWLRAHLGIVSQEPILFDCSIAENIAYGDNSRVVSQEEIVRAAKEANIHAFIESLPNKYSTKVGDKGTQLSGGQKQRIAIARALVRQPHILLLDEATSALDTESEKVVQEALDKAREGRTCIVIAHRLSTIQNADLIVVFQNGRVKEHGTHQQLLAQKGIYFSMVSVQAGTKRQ
Chain of CYP2A6 (P11509 whole entry): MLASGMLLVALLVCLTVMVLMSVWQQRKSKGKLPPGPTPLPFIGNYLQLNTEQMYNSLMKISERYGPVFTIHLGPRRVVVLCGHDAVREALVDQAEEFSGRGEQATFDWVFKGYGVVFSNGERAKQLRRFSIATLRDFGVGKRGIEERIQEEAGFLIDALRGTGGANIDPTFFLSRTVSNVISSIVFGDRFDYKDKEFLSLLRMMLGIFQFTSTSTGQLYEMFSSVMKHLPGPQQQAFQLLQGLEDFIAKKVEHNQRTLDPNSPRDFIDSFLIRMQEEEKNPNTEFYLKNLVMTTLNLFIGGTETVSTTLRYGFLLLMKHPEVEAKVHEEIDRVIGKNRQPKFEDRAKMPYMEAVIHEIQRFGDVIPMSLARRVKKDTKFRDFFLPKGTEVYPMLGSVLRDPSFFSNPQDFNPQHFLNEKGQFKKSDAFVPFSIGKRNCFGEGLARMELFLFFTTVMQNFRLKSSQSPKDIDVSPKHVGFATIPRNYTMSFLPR

O=C1CCC(N2Cc3cc(C4CCN(Cc5ccccc5)CC4)ccc3C2=O)C(=O)N1 (centres unmarked) [Compound I-57, 3-(5-(1-benzylpiperidin-4-yl)-1-oxoisoindolin-2-yl)piperidine-2,6-dione]
degradation of IKZF4 [1]: less potency than IKZF2
degradation of IKZF2 [2]: Degradation was observed
IKZF2 degradation [3]: degraded IKZF2 in a dose-dependent manner
interferon gamma production by IKZF2 positive cells [3]: concomitant increase
degradation of FIZ1 ([4]; 10 μM I-57, subsequent analyses): about 50%
degradation of FIZ1 ([4]; 293T cells, whole cell proteomic analysis): degraded
AUC(0-inf) [5, 16]: 7.1 ng·h/mL
Cmax [5, 16]: 2.9 ng/mL
AUC(0-inf) [5, 17]: 7.5 ng·h/mL
Cmax [5, 17]: 1.1 ng/mL
AUC(0-inf) [5, 18]: 30 ng·h/mL
Cmax [5, 18]: 8.8 ng/mL
AUC(0-inf) [5, 19]: 20 ng·h/mL
Cmax at 13 days [5, 19]: 4.6 ng/mL
AUC(0-inf) [5, 20]: 157 ng·h/mL
Cmax [5, 20]: 53 ng/mL
AUC(0-inf) [5, 21]: 92 ng·h/mL
Cmax [5, 21]: 27 ng/mL
AUC(0-inf) [5, 22]: 3470 ng·h/mL
Cmax [5, 22]: 1250 ng/mL
AUC(0-inf) [5, 23]: 4270 ng·h/mL
Cmax [5, 23]: 1300 ng/mL
dose proportionality of AUC and Cmax ([5]; between 3 and 30 mg/kg): over-dose proportional increase
change in exposure by repeated dosing ([5]; daily dosing): No significant increase in exposure
dose proportionality of AUC and Cmax ([5]; from 0.3 to 3 mg/kg): dose proportional increase
dose proportionality of AUC ([6]; above 100 mg/kg): less than dose proportional
dose proportionality of AUC ([6]; between 10 mg/kg and 100 mg/kg): slightly over-proportional
bioavailability ([6]; cynomolgus monkey, blood, po): 89%
binding to plasma protein [7]: 54%
CYP enzyme mediating oxidative metabolism [8]: CYP3A4 was found to primarily mediate these reactions
P-gp substrate status [9]: P-gp substrate
inhibition of CYP2A6 [10]: very little and no inhibition
inhibition of CYP2C8 [11]: very little and no inhibition
time-dependent inhibition of CYP2C9 [12]: no apparent time-dependent inhibition
cardiac electrical instability or wave abnormality [13]: No cardiac electrical instability or wave abnormality was observed
QT effects ([13]; 3 mg/kg): no QT effects were noted
free Cmax in monkeys at 3 mg/kg relative to free Cmax predicted at the clinical starting dose of 20 mg ([13]; 3 mg/kg): ~8.4 times
time of highest magnitude of the QTc effect ([13]; coinciding with Tmax): 0.5 to 5.5 h
increase in QTc interval ([13]; doses >10 mg/kg, single dose and 4-week GLP repeat dose study): at least 30 mSec
genotoxic potential [14]: no genotoxic or phototoxic potential
degradation of IKZF2 [15]: degradation was observed
